The values that follow come from patent US12428395B2, “Heterocyclic compounds as kinase inhibitor and uses thereof” (SPEROGENIX THERAPEUTICS LIMITED, priority 2019, dated 2025).

For one experiment, the system named is AsPC-1. Briefly: Cell viability assay (resazurin), AsPC-1. Format: cell-based. The settings on record: Homo sapiens, ASPC1; AsPC-1 pancreatic cancer cells. As to the method:
(§1) Protocol for Cell Viability Assay in Different Cell Lines for CHK-1 Inhibitors:
(§2) Cells were allowed to grow at 37° C. for 24 hr (adherent cells) in 5% CO2 (culture conditions) in a Nuaire incubator (humidified). Following 24 hr (adherent cells), serially diluted compounds (100 μl) were added to the culture plate (immediately after plating in case of suspension cells) and the cultures were further incubated in culture conditions for 72-144 hr depending on the cell type. Experiment was terminated at the completion of respective incubation with drug by replacing the medium with 100 μl of 1 mM of resazurin (R7017; Sigma) prepared in culture medium and the plates were further incubated in culture conditions for 4 hr. In case of 144 hr incubation with the drug, the drug was replenished once with fresh medium after 72 hr. Fluorescence was then measured using a multimodal plate reader (Biotek Synergy Neo) at an excitation wavelength of 535 nm and emission wavelength of 590 nm to obtain relative fluorescence units. Data analysis was done by subtracting the background fluorescence (only medium blank) value from each reading and then normalizing with the vehicle control (DMSO treated cells) to obtain percent survival/proliferation. Percent survival at different doses was used to calculate IC50 by fitting the curve to the “four-parameter variable slope logistic model” using Prism Graph Pad.

For a further experiment, the system named is MV-4-11. Briefly: Cell viability assay (resazurin), MV-4-11. The experiment is classed as cell-based. The conditions noted are these: Homo sapiens, MV4-11; MV-4-11 peripheral blood cells. Here is the method: as §1, §2
In general terms: Alamar Blue is a resazurin reagent that responds to reducing activity.

The test system of a further experiment is HCT116. As to the kind of experiment: Cell viability assay (resazurin), HCT116. The conditions noted are these: Homo sapiens, HCT-116; HCT116 colorectal carcinoma cells. The experiment is classed as cell-based. Here is the method: as §1, §2
The target of another experiment is CHK-1 kinase (Homo sapiens (Human), UniProt O14757). As to the kind of experiment: CHK-1 Kinase Assay (Z-LYTE based TR-FRET). Format: biochemical. The settings on record: for inhibition at 0.1 µM: 0.1 μM compound, read-out: % Inhibition of CHK-1 enzyme activity @ 0.1 μM; for inhibition at 1 µM: 1 μM compound, read-out: % Inhibition of CHK-1 enzyme activity @ 1 μM; for inhibition at 5 µM: 5 μM compound, read-out: % Inhibition of CHK-1 enzyme activity @ 5 μM. Here is the method: IC50 values of compounds for inhibition of CHK-1 kinase or percent inhibition at defined concentrations were determined by Z-LYTE™ based TR-FRET assay. Kinase reactions were performed in a 10 μL volume in low-volume 384-well plates. The concentration of substrate (Ser Thr 19) was maintained at 2 μM in the assay, and the kinase reaction buffer consisted of 50 mM HEPES pH 7.5, 0.01% BRIJ-35, 10 mM MgCl2, 1 mM EGTA, 2 mM DTT. Serially diluted compounds (3-fold) in DMSO (0.5% in final reaction) were incubated with cocktail of CHK-1 kinase (5 ng/ml; Cat #P3040, ThermoFisher), substrate Ser Thr 19, (2 μM; Cat #PV4529, ThermoFisher), ATP (53 μM; Cat #PV3227, ThermoFisher) and buffer. Kinase reactions were allowed to proceed for 1 hour at room temperature after which 5 μL of a 1:256 dilution of Development Reagent A was added. The plate was allowed to incubate at room temperature for 60 minutes before being read on a BMG Pherastar plate reader using the Z-LYTE™ filter block for Z-LYTE™ TR-FRET. The resulting TR-FRET emission ratio was used to calculate percent inhibition by normalizing with the control using the following formula: — [% Inhibition=1−{(% Phosphorylationsample/% Phosphorylationcontrol (0% Inhibition)}·100] For calculation of IC50, the percent inhibition obtained was plotted against the concentration of inhibitor, and the data was fit to a sigmoidal dose-response curve with a variable slope. The IC50 was calculated from the curve.
(Time-resolved FRET reads energy transfer from a long-lived donor to a nearby acceptor.)

For another experiment, the system named is HT-29. As to the kind of experiment: Cell viability assay (resazurin), HT-29. The experiment is classed as cell-based. The settings on record: Homo sapiens; HT-29 colon cancer cells. Here is the method:
as §1, §2

The next experiment deals with A549. Briefly: Cell viability assay (resazurin), A549. Format: cell-based. The conditions noted are these: Homo sapiens; A549 lung epithelial carcinoma cells. Here is the method: as §1, §2
In a further experiment the test system is MDA_MB-231. As to the kind of experiment: Cell viability assay (resazurin), MDA_MB-231. The experiment is classed as cell-based. The conditions noted are these: Homo sapiens, MDA-MB-231; MDA_MB-231 TNBC cells. Here is the method:
as §1, §2

The next experiment relates to THP1. Briefly: Cell viability assay (resazurin), THP1. The experiment is classed as cell-based. The settings on record: Homo sapiens, THP-1; THP1 peripheral blood cells. As to the method:
as §1, §2

A further experiment relates to MiaPaCa-2. As to the kind of experiment: Cell viability assay (resazurin), MiaPaCa-2. The settings on record: Homo sapiens, MIA PaCa-2; MiaPaCa-2 pancreatic cancer cells. Format: cell-based. Here is the method:
as §1, §2

The target of the next experiment is CHK-2 kinase (Homo sapiens (Human), UniProt O96017). As to the kind of experiment: CHK-2 Kinase Assay (Z-LYTE based TR-FRET). Format: biochemical. The settings on record: for inhibition at 0.1 µM: 0.1 μM compound, read-out: % Inhibition of CHK-2 enzyme activity @ 0.1 μM; for inhibition at 1 µM: 1 μM compound, read-out: % Inhibition of CHK-2 enzyme activity @ 1 μM. As to the method:
IC50 values of compounds for inhibition of CHK-2 kinase or percent inhibition at defined concentrations were determined by Z-LYTE™ based TR-FRET assay. Kinase reactions were performed in a 10 μL volume in low-volume 384-well plates. The concentration of substrate (Ser Thr 07) was maintained at 1 μM in the assay, and the kinase reaction buffer consisted of 50 mM HEPES pH 7.5, 0.01% BRIJ-35, 10 mM MgCl2, 1 mM EGTA. Serially diluted compounds (3-fold) in DMSO (0.5% in final reaction) were incubated with cocktail of CHK2 kinase (5 ng/ml; Cat #PV3367, ThermoFisher), substrate Ser Thr 07, (1 μM; Cat #PV3208, ThermoFisher), ATP (84 μM; Cat #PV3227, ThermoFisher) and buffer. Kinase reactions were allowed to proceed for 1 hour at room temperature after which 5 μL of a 1:45000 dilution of Development Reagent A was added. The plate was allowed to incubate at room temperature for 60 minutes before being read on a BMG Pherastar plate reader using the Z-LYTE™ filter block for Z-LYTE™ TR-FRET.
The resulting TR-FRET emission ratio was used to calculate percent inhibition by normalizing with the control using the following formula: — [% Inhibition=1−{(% Phosphorylationsample/% Phosphorylationcontrol (0% inhibition)}·100]
For calculation of IC50, the percent inhibition obtained was plotted against the concentration of inhibitor, and the data was fit to a sigmoidal dose-response curve with a variable slope. The IC50 was calculated from the curve.

A further experiment has as its system Panc-10.05. Briefly: Cell viability assay (resazurin), Panc-10.05. The experiment is classed as cell-based. The conditions noted are these: Homo sapiens, Panc1005; Panc-10.05 cells. As to the method:
as §1, §2

Some results are limits rather than exact numbers.

Chain of CHK-1 kinase (O14757 whole entry): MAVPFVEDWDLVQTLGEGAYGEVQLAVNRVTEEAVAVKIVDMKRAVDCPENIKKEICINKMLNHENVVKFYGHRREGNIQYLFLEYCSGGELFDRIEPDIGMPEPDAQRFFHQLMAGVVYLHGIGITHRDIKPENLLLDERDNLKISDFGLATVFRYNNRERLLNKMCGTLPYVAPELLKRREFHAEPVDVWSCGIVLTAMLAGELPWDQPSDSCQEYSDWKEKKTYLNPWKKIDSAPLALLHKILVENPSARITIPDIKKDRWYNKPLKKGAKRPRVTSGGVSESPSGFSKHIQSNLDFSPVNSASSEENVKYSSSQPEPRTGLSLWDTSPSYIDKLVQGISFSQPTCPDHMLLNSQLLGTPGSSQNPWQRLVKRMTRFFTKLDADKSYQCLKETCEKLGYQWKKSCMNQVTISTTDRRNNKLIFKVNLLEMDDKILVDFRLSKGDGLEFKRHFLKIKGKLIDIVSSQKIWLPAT
Chain of CHK-2 kinase (O96017 whole entry): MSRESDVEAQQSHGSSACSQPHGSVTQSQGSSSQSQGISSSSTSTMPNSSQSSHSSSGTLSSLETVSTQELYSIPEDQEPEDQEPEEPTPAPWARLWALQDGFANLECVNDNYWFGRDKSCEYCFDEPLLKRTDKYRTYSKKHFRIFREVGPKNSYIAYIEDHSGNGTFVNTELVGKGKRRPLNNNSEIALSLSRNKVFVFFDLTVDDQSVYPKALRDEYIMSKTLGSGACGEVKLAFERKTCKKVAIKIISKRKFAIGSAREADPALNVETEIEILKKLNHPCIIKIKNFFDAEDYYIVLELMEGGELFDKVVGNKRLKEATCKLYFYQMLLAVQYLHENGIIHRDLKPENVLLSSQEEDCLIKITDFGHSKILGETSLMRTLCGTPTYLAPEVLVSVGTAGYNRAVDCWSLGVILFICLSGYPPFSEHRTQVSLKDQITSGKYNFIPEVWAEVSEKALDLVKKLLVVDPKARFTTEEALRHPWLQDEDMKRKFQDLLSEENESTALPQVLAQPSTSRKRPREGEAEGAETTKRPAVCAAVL

Consider `CNC(=O)c1nnc(Nc2cnc(C#N)cn2)cc1NCC1CNCCO1` (stereo not drawn) [1.11, 6-(5-cyanopyrazin-2-ylamino)-N-methyl-4-(morpholin-2-ylmethylamino)pyridazine-3-carboxamide], for which the IC50 amounted to 6.41 µM with AsPC-1; 5.4 µM in the experiment with MV-4-11; 17.2 µM with HCT116; 14.9 µM with HT-29; 11.4 µM with A549; 13 µM in the experiment with MDA_MB-231. In addition, the figures for the IC50 in the experiment with THP1 and in the experiment on MiaPaCa-2 were 4.24 µM and 13.4 µM, respectively. Besides, at CHK-1 kinase, the inhibition at 0.1 µM is 91%. On CHK-1 kinase, the inhibition at 1 µM worked out at 100%. In addition, on CHK-1 kinase, the inhibition at 5 µM stood at 100%.

In the case of `CNC(=O)c1nnc(Nc2cnc(C#N)cn2)cc1NC[C@H]1CNCCO1` (stereo in doubt) [1.35, 6-(5-cyanopyrazin-2-ylamino)-N-methyl-4-(morpholin-2-ylmethylamino)pyridazine-3-carboxamide], the IC50 in the experiment on AsPC-1 was 11.6 µM; in the experiment on MV-4-11, 5.38 µM; in the experiment on HCT116, 17.2 µM; with HT-29, 14.5 µM; with A549, above 30 µM; in the experiment on MDA_MB-231, 15.5 µM. The IC50 is 6.23 µM with THP1 and 10.2 µM in the experiment with MiaPaCa-2. The inhibition at 0.1 µM on CHK-1 kinase is 86%. Further, the inhibition at 1 µM at CHK-1 kinase was determined as 100%. In addition, the inhibition at 5 µM at CHK-1 kinase is 100%.

`CNC(=O)c1nnc(Nc2cnc(C#N)cn2)cc1NCC1CCN(C)CC1` [1.19, 6-(5-cyanopyrazin-2-ylamino)-N-methyl-4-((1-methylpiperidin-4-yl)methylamino)pyridazine-3-carboxamide]: in the experiment with AsPC-1, the IC50 was determined as 8.45 µM. Besides, on CHK-1 kinase, the inhibition at 0.1 µM worked out at 49%, the inhibition at 1 µM was found to be 90% and the inhibition at 5 µM was 99%. Moreover, the 50% inhibitory concentration (IC50) with THP1 is 13.1 µM. Further, in the experiment with MiaPaCa-2, the IC50 stood at 26.2 µM.

Take `N#Cc1cnc(Nc2cc(NCC3CCNCC3)c(-c3ccccc3)nn2)cn1` [1.1, 5-((6-phenyl-5-((piperidin-4-ylmethyl)amino)pyridazin-3-yl)amino)pyrazine-2-carbonitrile]: the IC50 with HCT116 was above 30 µM. Besides, on CHK-1 kinase, the inhibition at 1 µM worked out at 15% and the inhibition at 5 µM is 32%.

`N#Cc1cnc(Nc2cc(NCC3CNCCO3)c(C(F)(F)F)nn2)cn1` (stereo not drawn) [1.7, 2-((6-(5-cyanopyrazin-2-ylamino)-3-(trifluoromethyl)pyridazin-4-ylamino)methyl)morpholin-4-ium 2,2,2-trifluoroacetate]: the IC50 with HT-29, with THP1 and in the experiment with MiaPaCa-2 was above 30 µM throughout.

As for `CN1CCC(Nc2cc(Nc3cnc(C#N)cn3)nnc2C(N)=O)CC1` [1.20, 6-(5-cyanopyrazin-2-ylamino)-4-(1-methylpiperidin-4-ylamino)pyridazine-3-carboxamide], in the experiment with AsPC-1, the IC50 is 11.9 µM. At CHK-1 kinase, the inhibition at 0.1 µM was found to be 61%, the inhibition at 1 µM was 93% and the inhibition at 5 µM amounted to 100%. In addition, the IC50 in the experiment with THP1 is 21.8 µM. Further, in the experiment with MiaPaCa-2, the IC50 turned out to be 23.5 µM.

Turning to `N#Cc1cnc(Nc2cc(NCC3CNCCO3)c(C(=O)NC3CC3)nn2)cn1` (stereo not drawn) [1.12, 6-(5-cyanopyrazin-2-ylamino)-N-cyclopropyl-4-(morpholin-2-ylmethylamino)pyridazine-3-carboxamide], the IC50 was 12.9 µM with AsPC-1, above 30 µM in the experiment with HT-29, 11.7 µM with THP1 and 23.2 µM with MiaPaCa-2. Further, the inhibition at 0.1 µM at CHK-1 kinase came out at 63%. Besides, the inhibition at 1 µM on CHK-1 kinase turned out to be 96%. Besides, the inhibition at 5 µM at CHK-1 kinase came to 98%.

In the case of `N#Cc1cnc(Nc2cc(NCC3CNCCO3)c(C(N)=O)nn2)cn1` (stereo not drawn) [1.2, 6-((5-cyanopyrazin-2-yl)amino)-4-((morpholin-2-ylmethyl)amino)pyridazine-3-carboxamide], the IC50 is above 30 µM in the experiment on AsPC-1; above 30 µM with HCT116; 0.07 µM at CHK-1 kinase; above 30 µM in the experiment on HT-29; above 30 µM with A549; above 30 µM in the experiment with MDA_MB-231. The IC50 with Panc-10.05, in the experiment on THP1 and in the experiment on MiaPaCa-2 was above 30 µM in each case. Besides, the inhibition at 0.1 µM on CHK-2 kinase came out at 8.28%. Also, the inhibition at 1 µM at CHK-2 kinase was 30%; at CHK-1 kinase, 96%. The inhibition at 5 µM on CHK-1 kinase was found to be 100%.

As for `N#Cc1cnc(Nc2cc(NCC3CCNCC3)c(C(N)=O)nn2)cn1` [1.3, 6-((5-cyanopyrazin-2-yl)amino)-4-((piperidin-4-ylmethyl)amino)pyridazine-3-carboxamide], the half-inhibitory concentration (IC50) was above 30 µM with AsPC-1; above 30 µM in the experiment with HCT116; 0.092 µM against CHK-1 kinase; above 30 µM in the experiment on HT-29; above 30 µM in the experiment on A549; above 30 µM in the experiment on MDA_MB-231. For the same compound, the IC50 in the experiment with Panc-10.05, in the experiment on THP1 and in the experiment on MiaPaCa-2 was above 30 µM in each case. Moreover, the inhibition at 0.1 µM at CHK-2 kinase stood at 12.1%. Also, the inhibition at 1 µM is 36.7% at CHK-2 kinase and 93% at CHK-1 kinase. Besides, the inhibition at 5 µM on CHK-1 kinase is 98%.

`CNC(=O)c1nnc(Nc2cnc(C#N)cn2)cc1NC[C@@H]1CNCCO1` (stereo in doubt) [1.34, 6-(5-cyanopyrazin-2-ylamino)-N-methyl-4-(morpholin-2-ylmethylamino)pyridazine-3-carboxamide]: the IC50 in the experiment with AsPC-1 was 13.2 µM; in the experiment with MV-4-11, 7 µM; with HCT116 it was 27.9 µM; in the experiment on HT-29, 16.9 µM; with A549, above 30 µM; with MDA_MB-231 it was 12.4 µM. Also, the IC50 with THP1 turned out to be 9.79 µM; in the experiment with MiaPaCa-2, 10.8 µM. The inhibition at 0.1 µM at CHK-1 kinase was 77%. On CHK-1 kinase, the inhibition at 1 µM was determined as 96%. In addition, the inhibition at 5 µM at CHK-1 kinase was 99%.

What is called IC50 is the concentration that gives 50% inhibition. Broadly, the inhibition is how much of the control response was suppressed.
